Data on nine compounds can be found in US6903125B2, “Tetrahydro-2H-thiopyran-4-carboxamide derivative” (Yamanouchi Pharmaceutical Co., Ltd., priority 2003, dated 2005).

One assay relates to HSV-1 strain WT-51. Briefly: Cutaneously HSV-1-infected hairless mice model. Particulars: oral, methyl cellulose suspension, 10 mg/kg twice daily for 5 days; from AUC of mean composite disease score over 17 days. In kind it is in vivo, hairless mice [HR-1]. As for the experimental part:
Female hairless mice [HR-1, 7 weeks of age] were infected with a virus suspension containing HSV-1 strain WT-51 (1.5×10^4 PFU/15 μl) on the lateral side of the body, which had scratched with a needle, while anesthetized with diethyl ether, as previously described by H. Machida et al. [Antiviral Res., 1992, 17, 133-143]. Tested compounds were administered orally as a methyl cellulose suspension, except for compounds marked with asterisk which were dissolved in 20% Cremophor EL and 20% polyethylene glycol, starting at 3 hours after the infection, and then at a dose of 10 mg/kg twice daily for a period of 5 days. Hairless mice were inspected daily and disease severity was determined using the following criteria: • Score 0: no signs of infection. • Score 1: localized, barely perceptible small vesicles. • Score 2: slight vesicle spread. • Score 3: large patches of vesicles formed. • Score 4: zosteriform vesicles. • Score 5: large patches of ulcers formed. • Score 6: zosteriform with severe large ulcers. • Score 7: hind limb paralysis or death.
The zosteriform skin lesion and neurological scores for each animal were combined to produce a composite score. The mean composite score was used to represent the disease in each study group. The disease course was measured for 17 days and the extent of the disease was represented by the area under the curve (AUC) of the mean daily composite disease score each day after viral inoculation. The inhibitory activities of tested compounds were calculated using the AUCs.

A further assay has as its system VZV (strain CaQu). Briefly: Anti-VZV activity assay (plaque reduction in HEF cells). The assay is classed as cell-based, varicella zoster virus. As for the experimental part:
This experiment was carried out based on the method described by Shigeta S., The Journal of Infectious Diseases, 147, 3, 576-584 (1983). Briefly, 10,000 human embryonic fibroblast (HEF) cells were inoculated in a 96-well microtiter plate, using a growth culture medium [Eagle MEM (Nissui) supplemented with 10% (v/v) fetal bovine serum (FBS; Sigma)], for culturing in 5% CO2 at 37° C. for 4 days until a monolayer was formed. After the cells were washed with a maintenance culture medium (MEM supplemented with 2% FBS), VZV (strain CaQu) preliminarily diluted to 20 to 30 pfu/100 μl with the maintenance culture medium was inoculated at 100 μl/well. The plate was centrifuged at 2,000 rpm at ambient temperature for 20 minutes and was then incubated in 5% CO2 at 37° C. for 3 hours, for infection with VZV. After the plate was washed three times with the maintenance culture medium, 100 μl of a test drug diluted to an appropriate concentration with the maintenance culture medium was added to each well. After the cells were cultured in 5% CO2 at 37° C. for 3 to 4 days, 10% formalin/PBS was added at 100 μl/well to fix the cells for 2 to 3 hours. After discarding the fixing solution and culture supernatant and subsequently washing the plate with water, a staining solution (0.025% Crystal Violet) was added at 50 μl/well for staining for 2 to 3 minutes, and then, the plate was washed with water and dried at 37° C. Cellular death is induced in the HEF cells infected with VZV, so that plaques of the dead cells are formed in the monolayer of the HEF cells.

Another assay concerns HSV-1 (strain KOS). Briefly: Anti-HSV-1 activity assay (MTT, MRC-5 cells). Conditions: HSV-1 strain KOS in MRC-5 cells, 5 days culture, read-out: EC50 value (suppression of cellular death of MRC-5 cells via HSV-1 replication). In kind it is cell-based. As for the experimental part: 10,000 MRC-5 cells were inoculated and cultured in a 96-well microtiter plate, using the growth culture medium in 5% CO2 at 37° C. for 4 to 5 days until a monolayer was formed. After the cells were washed with the maintenance culture medium, 100 μl of the maintenance culture medium dissolving therein an appropriate concentration of a test reagent was added to each well. Immediately after the test drug was added, an HSV-1 (strain KOS) solution was inoculated at 50 TCID50 (50% tissue culture infectious dose)/100 μl. After the cells were cultured in 5% CO2 at 37° C. for 5 days, 20 μl of MTT solution [3-(4,5-dimethyl-2-thiazolyl)-2,5-diphenyl-2H-tetrazolium bromide; Sigma] (diluted with PBS to 7.5 mg/ml) was added to each well, for another 24-hour incubation. After the culture medium was discarded, 100 μl of a solvent (prepared by adding 10% (v/v) Triton X 100 and 0.4% hydrochloric acid to isopropanol) was added to each well, to solubilize the generated formazan. The absorbance at 540 nm or 690 nm was measured with a microplate reader. Based on the suppression ratio (%) of the cellular death of the MRC-5 cell via HSV-1 replication, the EC50 value of the test drug was calculated.

[1] abbreviates: Human alphaherpesvirus 3, read-out: EC50 value (concentration to inhibit 50% of the plaques), plaque count after 3 to 4 days.
The mark [2] stands for this setting: Human alphaherpesvirus 1, MRC5, 120 h.

Read-outs that look alike come from different tables or passages of the source.

On to `Cc1ccc(N(CC(=O)Nc2ccc(-c3cocn3)cc2)C(=O)C2CCS(=O)(=O)CC2)cc1` [Example 2, N-(4-methylphenyl)-N-(2-{[4-(1,3-oxazol-4-yl)phenyl]amino}-2-oxoethyl)tetrahydro-2H-thiopyran-4-carboxamide 1,1-dioxide], for which, in the assay with HSV-1 strain WT-51, the “Inhibitory activity (%)” value turned out to be 85%.
In the case of `Cc1cc(N(CC(=O)Nc2ccc(-c3ncon3)cc2)C(=O)C2CCS(=O)(=O)CC2)ccc1Cl` [Example 37, N-(4-chloro-3-methylphenyl)-N-(2-{[4-(1,2,4-oxadiazol-3-yl)phenyl]amino}-2-oxoethyl)tetrahydro-2H-thiopyran-4-carboxamide 1,1-dioxide], the EC50 in the assay on VZV (strain CaQu) (setting [1]) came out at 95 nM; in the assay with HSV-1 (strain KOS) (setting [2]), 26 nM.
Taken in the same sequence, the figures for `Nc1nc2c(ncn2COCCO)c(=O)[nH]1` [acyclovir, reference compound] were 3400 nM and 480 nM.
With `O=C(CN(C(=O)C1CCS(=O)(=O)CC1)c1ccc2c(c1)CCC2)Nc1ccc(-c2cocn2)cc1` [Example 11], the EC50 in the assay on VZV (strain CaQu) (read-out: EC50 value (concentration to inhibit 50% of the plaques), plaque count after 3 to 4 days) worked out at 60 nM; in the assay with HSV-1 (strain KOS), 40 nM. The “Inhibitory activity (%)” value in the assay with HSV-1 strain WT-51 was 92%.
Turning to `Cc1cccc(C)c1N(CC(=O)Nc1ccc(-c2ncon2)cc1)C(=O)C1CCS(=O)(=O)CC1` [Example 27, N-(2,6-dimethylphenyl)-N-(2-{[4-(1,2,4-oxadiazol-3-yl)phenyl]amino}-2-oxoethyl)tetrahydro-2H-thiopyran-4-carboxamide 1,1-dioxide], the figures for the EC50 in the assay on VZV (strain CaQu) (setting [1]) and in the assay on HSV-1 (strain KOS) (setting [2]) were 100 nM and 60 nM, respectively. Further, the “Inhibitory activity (%)” value in the assay with HSV-1 strain WT-51 is listed as 86%.
Take `Cc1ccc(N(CC(=O)Nc2ccc(-c3ncon3)cc2)C(=O)C2CCS(=O)(=O)CC2)c(C)c1F` [Example 39, N-(3-fluoro-2,4-dimethylphenyl)-N-(2-{[4-(1,2,4-oxadiazol-3-yl)phenyl]amino}-2-oxoethyl)tetrahydro-2H-thiopyran-4-carboxamide 1,1-dioxide]: the EC50 came to 82 nM in the assay on VZV (strain CaQu) (setting [1]) and 29 nM with HSV-1 (strain KOS) (setting [2]).
The like results for `Cc1cccc(C)c1N(CC(=O)Nc1ccc(-c2cocn2)cc1)C(=O)C1CCS(=O)(=O)CC1` [Example 1, N-(2,6-dimethylphenyl)-N-(2-{[4-(1,3-oxazol-4-yl)phenyl]amino}-2-oxoethyl)tetrahydro-2H-thiopyran-4-carboxamide 1,1-dioxide] were, in that order, 75 nM and 75 nM.
As for `Cc1cc(N(CC(=O)Nc2ccc(-c3cocn3)cc2)C(=O)C2CCS(=O)(=O)CC2)ccc1Cl` [Example 13, N-(4-chloro-3-methylphenyl)-N-(2-{[4-(1,3-oxazol-4-yl)phenyl]amino}-2-oxoethyl)tetrahydro-2H-thiopyran-4-carboxamide 1,1-dioxide], the EC50 is 33 nM in the assay with VZV (strain CaQu) (setting [1]) and 6 nM with HSV-1 (strain KOS) (setting [2]).
Turning to `Cc1cccc(N(CC(=O)Nc2ccc(-c3ncon3)cc2)C(=O)C2CCS(=O)(=O)CC2)c1C` [Example 24, N-(2,3-dimethylphenyl)-N-(2-{[4-(1,2,4-oxadiazol-3-yl)phenyl]amino}-2-oxoethyl)tetrahydro-2H-thiopyran-4-carboxamide 1,1-dioxide], the “Inhibitory activity (%)” value in the assay with HSV-1 strain WT-51 is reported as 69%.
